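Results reflect a 48-hour exposure of cells in 96-well plates to compound at five concentrations. GI50 marks 50% less growth. TGI marks complete inhibition of growth.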

The text below walks through data of PubChem BioAssay (NCI).

Test systems include OVCAR-4 ovarian; HOP-92 NSCLC; NCI-H460 lung; UO-31 renal; UACC-62 melanoma; KM12 colon; SK-MEL-5 melanoma; HCC-2998 colon; MALME-3M melanoma.
What all share (assay): NCI anticancer screen, dose series, 48 h

For the compound `CC1OC2CC(=O)OC2C2=C1C(=O)c1c(O)cccc1C2=O` (configuration not stated), the GI50 in the test with OVCAR-4 ovarian was 0.113 µM; in the test on HOP-92 NSCLC it was 0.151 µM; in the test with NCI-H460 lung, 0.415 µM; in the test on UO-31 renal, 0.0725 µM; in the test on UACC-62 melanoma, 0.135 µM; in the test with KM12 colon, 0.176 µM. Also, the GI50 in the test with SK-MEL-5 melanoma is 0.124 µM; in the test on HCC-2998 colon it was 0.236 µM; in the test on MALME-3M melanoma, 0.0235 µM. Besides, the TGI is 0.253 µM with OVCAR-4 ovarian; 0.315 µM with HOP-92 NSCLC; 1.75 µM in the test on NCI-H460 lung; 0.23 µM with UO-31 renal; 0.287 µM in the test on UACC-62 melanoma; 0.392 µM with KM12 colon. Besides, the TGI in the test on SK-MEL-5 melanoma is 0.251 µM; with HCC-2998 colon it was 0.558 µM; in the test with MALME-3M melanoma, 0.0695 µM.

Take `COc1ccc(N(C)c2ncnc3occ(C)c23)cc1`: the GI50 in the test with OVCAR-4 ovarian was under 0.0311 µM; with HOP-92 NSCLC, 0.0625 µM; in the test on NCI-H460 lung it was under 0.01 µM; with UO-31 renal, under 0.01 µM; with UACC-62 melanoma it was under 0.01 µM; in the test on KM12 colon it was under 0.01 µM. Further, the GI50 with SK-MEL-5 melanoma is under 0.01 µM; in the test with HCC-2998 colon, under 0.01 µM; in the test with MALME-3M melanoma it was 38.7 µM. The TGI in the test on OVCAR-4 ovarian was over 100 µM; with HOP-92 NSCLC it was over 100 µM; with UO-31 renal it was over 100 µM; in the test on UACC-62 melanoma, over 100 µM; with SK-MEL-5 melanoma, under 0.0149 µM; in the test with HCC-2998 colon, 0.0463 µM. The same compound had a TGI in the test with MALME-3M melanoma of over 100 µM.

With `COc1cc(Nc2cn[nH]c2-c2ccc(Cl)cc2)cc(OC)c1OC`, the GI50 with OVCAR-4 ovarian is 7.93 µM; in the test with HOP-92 NSCLC it was 2.73 µM; in the test on NCI-H460 lung, 3.7 µM; in the test with UO-31 renal, 4.09 µM; in the test on UACC-62 melanoma it was 3.61 µM; in the test with KM12 colon, 2.83 µM. Moreover, the GI50 in the test on SK-MEL-5 melanoma is 3.58 µM; in the test on HCC-2998 colon it was 5.46 µM; in the test on MALME-3M melanoma, 4.51 µM. In addition, the TGI with OVCAR-4 ovarian was over 100 µM; with HOP-92 NSCLC, 33.4 µM; in the test with NCI-H460 lung, 19.1 µM; in the test on UO-31 renal it was 28.8 µM; in the test on UACC-62 melanoma, 18.9 µM; in the test on KM12 colon it was 16.4 µM. The TGI came to 14.6 µM in the test on SK-MEL-5 melanoma, 23.4 µM in the test with HCC-2998 colon and 45.8 µM in the test with MALME-3M melanoma.

As for `C=C(F)C(=O)N1CCN(c2nc(OC[C@@H]3CCCN3C)nc3c2CCN(c2cccc4cccc(Cl)c24)C3)C[C@@H]1CC#N`, the GI50 in the test on OVCAR-4 ovarian is 0.994 µM; in the test on HOP-92 NSCLC it was 0.437 µM; in the test on NCI-H460 lung, 1.05 µM; with UO-31 renal, 1.13 µM; in the test on UACC-62 melanoma it was 1.66 µM; with KM12 colon, 1.2 µM. Also, the GI50 with SK-MEL-5 melanoma was 1.63 µM; in the test with HCC-2998 colon, 1.2 µM; in the test on MALME-3M melanoma it was 1.47 µM. In addition, the TGI with OVCAR-4 ovarian was 3.3 µM; in the test with HOP-92 NSCLC it was 1.85 µM; in the test with NCI-H460 lung it was 2.38 µM; with UO-31 renal it was 2.57 µM; in the test with UACC-62 melanoma, 3.25 µM; in the test with KM12 colon, 2.56 µM. In addition, the TGI in the test with SK-MEL-5 melanoma came out at 3.06 µM; with HCC-2998 colon it was 2.66 µM; in the test with MALME-3M melanoma, 2.98 µM.

As for `O=C1NC(=Nc2ccccc2)S/C1=C\c1ccc2ncccc2c1`, the GI50 with OVCAR-4 ovarian is over 25 µM; in the test on HOP-92 NSCLC it was over 25 µM; with NCI-H460 lung it was over 6.82 µM; with UO-31 renal, over 25 µM; in the test with UACC-62 melanoma, 13.4 µM; with KM12 colon, 1.62 µM. Also, the GI50 in the test with SK-MEL-5 melanoma was over 25 µM; with HCC-2998 colon it was over 25 µM; with MALME-3M melanoma, over 18.1 µM. Besides, the TGI in the test with OVCAR-4 ovarian, in the test with HOP-92 NSCLC, with NCI-H460 lung, in the test with UO-31 renal, in the test with UACC-62 melanoma and with KM12 colon was over 25 µM in each case. Also, the TGI in the test on SK-MEL-5 melanoma, with HCC-2998 colon and in the test on MALME-3M melanoma was over 25 µM in each case.

In the case of `Cn1c(=O)c2c(nc(Nc3cc(=O)[nH]c(=O)[nH]3)n2Cc2ccccc2)n(C)c1=O`, the GI50 was 46.9 µM in the test on OVCAR-4 ovarian; 7.51 µM in the test with HOP-92 NSCLC; over 100 µM with NCI-H460 lung; 77 µM in the test on UO-31 renal; 65.8 µM with UACC-62 melanoma; over 100 µM in the test on KM12 colon. Besides, the GI50 with SK-MEL-5 melanoma is 48 µM; in the test on HCC-2998 colon it was over 100 µM; in the test on MALME-3M melanoma, over 100 µM. In addition, the TGI in the test with OVCAR-4 ovarian, in the test on HOP-92 NSCLC, in the test with NCI-H460 lung, in the test on UO-31 renal, in the test on UACC-62 melanoma and in the test with KM12 colon was over 100 µM in each case. Further, the TGI with SK-MEL-5 melanoma, with HCC-2998 colon and with MALME-3M melanoma was over 100 µM each time.

In the case of `COC(=O)/C=C/c1cc(O)c2oc(-c3ccc(O)c(O)c3)c(C(=O)OC)c2c1`, the GI50 is 0.901 µM in the test on OVCAR-4 ovarian; 1.57 µM in the test with HOP-92 NSCLC; 2.66 µM with NCI-H460 lung; 1.11 µM with UO-31 renal; 0.802 µM with UACC-62 melanoma; 0.439 µM in the test with KM12 colon. For the same compound, the GI50 was 0.221 µM in the test on SK-MEL-5 melanoma, 2.09 µM in the test with HCC-2998 colon and 0.397 µM with MALME-3M melanoma. In addition, the TGI came to 12 µM with OVCAR-4 ovarian; 11.3 µM in the test on HOP-92 NSCLC; 18.1 µM in the test with NCI-H460 lung; 10.6 µM with UO-31 renal; 5.96 µM in the test with UACC-62 melanoma; 9.38 µM with KM12 colon. Also, the TGI with SK-MEL-5 melanoma came to 1.61 µM; with HCC-2998 colon, 11.2 µM; in the test with MALME-3M melanoma, 14.4 µM.

As to `CNCCCn1cc(C2=C(c3cn(C)c4ccccc34)C(=O)NC2=O)c2ccccc21`, the GI50 is 3.06 µM in the test on OVCAR-4 ovarian; 2.63 µM with HOP-92 NSCLC; 4.53 µM with NCI-H460 lung; 3.58 µM with UO-31 renal; 3.96 µM with UACC-62 melanoma; 3.89 µM in the test on KM12 colon. For the same compound, the GI50 in the test with SK-MEL-5 melanoma was 3.77 µM; in the test on HCC-2998 colon, 5.13 µM; in the test on MALME-3M melanoma it was 5.37 µM. Further, the TGI was 14.1 µM in the test on OVCAR-4 ovarian; 10.1 µM in the test with HOP-92 NSCLC; 9.19 µM in the test with NCI-H460 lung; 11.8 µM in the test on UO-31 renal; 7.67 µM in the test with UACC-62 melanoma; 8.39 µM in the test with KM12 colon. Moreover, the figures for the TGI in the test with SK-MEL-5 melanoma, in the test with HCC-2998 colon and in the test on MALME-3M melanoma were 7.3 µM, 11.7 µM and 10.4 µM, respectively.
